# Read-outs that look alike come from different tables or passages of the source.
# Legend:
# [1] = target: GDP-bound HRAS wild-type protein (Homo sapiens, UniProt P01112); experiment: Binding to HRAS by surface plasmon resonance (SPR), Single Cycle Kinetics; details: for HRAS/KRAS (ratio of KD value for HRAS to KD value for KRAS): SPR, GDP-bound HRAS wild-type protein vs GDP-bound KRAS wild-type protein; for HRAS/KRAS (ratio of KD value with respect to GDP-bound HRAS wild-type protein to KD value with respect to KRAS): SPR KD ratio HRAS/KRAS, class symbols
# [2] = target: GDP-bound KRAS wild-type protein (Homo sapiens, UniProt P01116); experiment: Binding to KRAS by surface plasmon resonance (SPR), Single Cycle Kinetics; details: GDP-bound KRAS wild-type protein, read-out: KRAS KD
# [3] = test system: human lung cancer strain NCI-H441;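 further: cell proliferation inhibition after four days measured by CellTiter-Glo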
# [4] = target: GDP-bound NRAS wild-type protein (Homo sapiens, UniProt P01111); experiment: Binding to NRAS by surface plasmon resonance (SPR), Single Cycle Kinetics; details: for NRAS/KRAS (ratio of KD value for NRAS to KD value for KRAS): SPR, GDP-bound NRAS wild-type protein vs GDP-bound KRAS wild-type protein; for NRAS/KRAS (ratio of KD value with respect to GDP-bound NRAS wild-type protein to KD value with respect to KRAS): SPR KD ratio NRAS/KRAS, class symbols
# [5] = SPR, Single Cycle Kinetics, 1:1 binding model
# [6] = SPR Single Cycle Kinetics, 1:1 binding model
# Chain of GDP-bound KRAS wild-type protein (P01116 whole entry): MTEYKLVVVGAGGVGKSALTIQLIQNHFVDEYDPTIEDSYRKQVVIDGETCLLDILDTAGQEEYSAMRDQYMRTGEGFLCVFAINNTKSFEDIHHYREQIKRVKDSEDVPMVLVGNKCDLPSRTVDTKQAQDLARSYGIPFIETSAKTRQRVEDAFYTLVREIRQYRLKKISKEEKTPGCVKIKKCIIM
# Chain of GDP-bound NRAS wild-type protein (P01111 whole entry): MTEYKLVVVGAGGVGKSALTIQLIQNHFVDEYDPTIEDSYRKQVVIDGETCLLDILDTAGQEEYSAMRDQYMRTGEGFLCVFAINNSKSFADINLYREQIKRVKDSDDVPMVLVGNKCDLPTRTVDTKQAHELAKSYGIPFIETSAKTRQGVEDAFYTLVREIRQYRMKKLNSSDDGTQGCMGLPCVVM
# Chain of GDP-bound HRAS wild-type protein (P01112 whole entry): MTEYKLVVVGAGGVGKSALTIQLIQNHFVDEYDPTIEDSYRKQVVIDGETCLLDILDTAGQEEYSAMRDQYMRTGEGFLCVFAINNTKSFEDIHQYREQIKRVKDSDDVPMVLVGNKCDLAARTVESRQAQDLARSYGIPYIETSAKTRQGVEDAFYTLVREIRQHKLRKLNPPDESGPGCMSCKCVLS
Structure (SMILES),"Kd ([2]; SPR, Single Cycle Kinetics)",IC50 [3],"Kd [2, 5]","Kd [2, 6]",HRAS/KRAS (ratio of KD value for HRAS to KD value for KRAS) [1],NRAS/KRAS (ratio of KD value for NRAS to KD value for KRAS) [4],HRAS/KRAS (ratio of KD value for HRAS to KD value for KRAS) ([1]; KD ratio class),NRAS/KRAS (ratio of KD value for NRAS to KD value for KRAS) ([4]; KD ratio class),HRAS/KRAS (ratio of KD value with respect to GDP-bound HRAS wild-type protein to KD value with respect to KRAS) [1],NRAS/KRAS (ratio of KD value with respect to GDP-bound NRAS wild-type protein to KD value with respect to KRAS) [4]
CCCOC[C@H]1C(=O)N[C@@H]([C@@H](C)OCC)C(=O)N2CCC[C@H]2C(=O)N(C)[C@H]2C/C=C\CCN(C2=O)[C@@H](Cc2ccc(C)cc2)C(=O)N(C)CC(=O)N[C@@H](CCc2ccc(C(F)(F)F)c(OC)c2)C(=O)N2C[C@@H](C)C[C@H]2C(=O)NC2(CC(C)(C)C2)C(=O)N(C)[C@@H](C2CCCC2)C(=O)N(C)[C@H](C(=O)N(C)CC)CC(=O)N1C [PP2431],2.3 nM,79.5 nM,–,–,A (a compound having 10 or more and less than 20 is denoted as A),A (a compound having 10 or more and less than 20 is denoted as A),–,–,–,–
CCO[C@@H]1C[C@H]2C(=O)NC3(CCC3)C(=O)N(C)[C@@H](C3CCCC3)C(=O)N(C)[C@H](C(=O)N(C)C)CC(=O)N(C)[C@@H](CC3CC3)C(=O)N[C@@H]([C@@H](C)CC)C(=O)N(C)CC(=O)N(C)[C@H]3C/C=C\CCN(C3=O)[C@@H](Cc3ccc(C)cc3)C(=O)N(C)CC(=O)N[C@@H](CCc3cc(F)c(Cl)c(F)c3)C(=O)N2C1 [PP1484],–,59.3 nM,0.45 nM,–,–,–,A (a compound having 10 or more and less than 20 is denoted as A),A (a compound having 10 or more and less than 20 is denoted as A),–,–
CCO[C@@H]1C[C@H]2C(=O)NC3(CC(C)(C)C3)C(=O)N(C)[C@@H](C3CCCC3)C(=O)N(C)[C@H](C(=O)N3CCCCC3)CC(=O)N(C)[C@@H](COC)C(=O)N[C@@H]([C@@H](C)CC)C(=O)N(C3CC3)CC(=O)N(C)[C@H]3C/C=C\CCN(C3=O)[C@@H](Cc3ccc(C(F)(F)F)cc3)C(=O)N(C)CC(=O)N[C@@H](CCc3cc(F)c(C(F)(F)F)c(F)c3)C(=O)N2C1 [PP2666],–,28.6 nM,–,0.72 nM,–,–,–,–,AA (a compound having 20 or more is denoted as AA),AA (a compound having 20 or more is denoted as AA)
CCO[C@@H]1C[C@H]2C(=O)NC3(CCC3)C(=O)N(C)[C@@H](C3CCCC3)C(=O)N(C)[C@H](C(=O)N3CCOCC3)CC(=O)N(C)[C@@H](COC)C(=O)N[C@@H]([C@@H](C)CC)C(=O)N(C)CC(=O)N(C)[C@H]3CCCCCN(C3=O)[C@@H](Cc3ccc(F)cc3)C(=O)N(C)CC(=O)N[C@@H](CCc3cc(F)c(C(F)(F)F)c(F)c3)C(=O)N2C1 [PP1179],0.091 nM,56.9 nM,–,–,B (a compound having 3 or more and less than 10 is denoted as B),B (a compound having 3 or more and less than 10 is denoted as B),–,–,–,–
CCO[C@@H]1C[C@H]2C(=O)NC3(CCC3)C(=O)N(C)[C@@H](C3CCCC3)C(=O)N(C)[C@H](C(=O)N(C)C)CC(=O)N(C)[C@@H](CC3CC3)C(=O)N[C@@H]([C@@H](C)CC)C(=O)N(C)CC(=O)N(C)[C@H]3CCCCCN(C3=O)[C@@H](Cc3ccc(F)cc3)C(=O)N(C)CC(=O)N[C@@H](CCc3cc(F)c(C(F)(F)F)c(F)c3)C(=O)N2C1 [PP1192],0.04 nM,10.5 nM,–,–,A (a compound having 10 or more and less than 20 is denoted as A),B (a compound having 3 or more and less than 10 is denoted as B),–,–,–,–
CCC[C@H]1C(=O)N[C@@H](CC(C)C)C(=O)N(CC)CC(=O)N(C)[C@H]2C/C=C\CCN(C2=O)[C@@H](Cc2ccc(C)cc2)C(=O)N(C)CC(=O)N[C@@H](CCc2ccc(C(F)(F)F)c(OC)c2)C(=O)N2C[C@H](OCC)C[C@H]2C(=O)NC2(CCC2)C(=O)N(C)[C@@H](C2CCCC2)C(=O)N(C)[C@H](C(=O)N(C)C)CC(=O)N1C [PP2540],–,562 nM,–,4.6 nM,–,–,–,–,B (a compound having 3 or more and less than 10 is denoted as B),A (a compound having 10 or more and less than 20 is denoted as A)

# Further lines, with some results ahead:
"Kd ([2]; SPR, Single Cycle Kinetics)",IC50 [3],"Kd [2, 5]","Kd [2, 6]",Structure (SMILES),HRAS/KRAS (ratio of KD value for HRAS to KD value for KRAS) [1],NRAS/KRAS (ratio of KD value for NRAS to KD value for KRAS) [4],HRAS/KRAS (ratio of KD value for HRAS to KD value for KRAS) ([1]; KD ratio class),NRAS/KRAS (ratio of KD value for NRAS to KD value for KRAS) ([4]; KD ratio class),HRAS/KRAS (ratio of KD value with respect to GDP-bound HRAS wild-type protein to KD value with respect to KRAS) [1],NRAS/KRAS (ratio of KD value with respect to GDP-bound NRAS wild-type protein to KD value with respect to KRAS) [4]
0.64 nM,41.4 nM,–,–,CCO[C@@H]1C[C@H]2C(=O)NC3(CC(C)(C)C3)C(=O)N(C)[C@@H](C(CC)CC)C(=O)N(C)[C@H](C(=O)N(C)C)CC(=O)N(C)[C@@H](COC)C(=O)N[C@@H]([C@@H](C)CC)C(=O)N(C)CC(=O)N(C)[C@H]3C/C=C\CCN(C3=O)[C@@H](CC3CCC(F)(F)CC3)C(=O)N(C)CC(=O)N[C@@H](CCc3ccc(C(F)(F)F)c(OC)c3)C(=O)N2C1 [PP2438],A (a compound having 10 or more and less than 20 is denoted as A),A (a compound having 10 or more and less than 20 is denoted as A),–,–,–,–
–,35.6 nM,0.28 nM,–,CCO[C@@H]1C[C@H]2C(=O)NC3(CCC3)C(=O)N(C)[C@@H](C(CC)CC)C(=O)N(C)[C@H](C(=O)N(C)C)CC(=O)N(C)[C@@H](CC3CCCC3)C(=O)N[C@@H]([C@@H](C)CC)C(=O)N(C)CC(=O)N(C)[C@H]3C/C=C\CCN(C3=O)[C@@H](Cc3ccc(C(F)(F)F)cc3)C(=O)N(C)CC(=O)N[C@@H](CCc3ccc(C(F)(F)F)c(OC)c3)C(=O)N2C1 [PP1212],–,–,A (a compound having 10 or more and less than 20 is denoted as A),AA (a compound having 20 or more is denoted as AA),–,–
–,70.3 nM,–,1.2 nM,CCCOC[C@H]1C(=O)N[C@@H]([C@@H](C)CC)C(=O)N(C)CC(=O)N(C)[C@H]2C/C=C\CCN(C2=O)[C@@H](Cc2ccc(C)cc2)C(=O)N(C)CC(=O)N[C@@H](CCc2cc(F)c(C(F)(F)F)c(F)c2)C(=O)N2C[C@H](OCC)C[C@H]2C(=O)NC2(CC(C)(C)C2)C(=O)N(C)[C@@H](CC2CCC2)C(=O)N(C)[C@H](C(=O)N(C)C)CC(=O)N1C [PP2752],–,–,–,–,A (a compound having 10 or more and less than 20 is denoted as A),A (a compound having 10 or more and less than 20 is denoted as A)
–,61.4 nM,–,1 nM,CCC[C@H]1C(=O)N[C@@H]([C@@H](C)CC)C(=O)N2CCC[C@H]2C(=O)N(C)[C@H]2C/C=C\CCN(C2=O)[C@@H](Cc2ccc(C(F)F)cc2)C(=O)N(C)CC(=O)N[C@@H](CCc2ccc(Cl)c(Cl)c2)C(=O)N2C[C@H](OCC)C[C@H]2C(=O)NC2(CC(C)(C)C2)C(=O)N(C)[C@@H](C(CC)CC)C(=O)N(C)[C@H](C(=O)N(C)C)CC(=O)N1C [PP2637],–,–,–,–,A (a compound having 10 or more and less than 20 is denoted as A),AA (a compound having 20 or more is denoted as AA)
–,13.4 nM,–,0.27 nM,CCO[C@@H]1C[C@H]2C(=O)NC3(CC(C)(C)C3)C(=O)N(C)[C@@H](C3CCCCC3)C(=O)N(C)[C@H](C(=O)N(C)C)CC(=O)N(C)[C@@H](COC)C(=O)N[C@@H]([C@@H](C)CC)C(=O)N(C)CC(=O)N(C)[C@H]3C/C=C\CCN(C3=O)[C@@H](Cc3ccc(C(F)(F)F)cc3)C(=O)N(C)CC(=O)N[C@@H](CCc3ccc(Cl)c(Cl)c3)C(=O)N2C1 [PP2661],–,–,–,–,A (a compound having 10 or more and less than 20 is denoted as A),AA (a compound having 20 or more is denoted as AA)
